Like-named read-outs stand apart in the source and are kept apart here.
How the values were obtained:
[1] = molecular target: T1, central 5-HT1D binding sites (Bos taurus, UniProt F1MGM3); test: 5-HT1D binding ([3H]5-HT displacement, bovine caudate nuclei membranes)
T1 construct: Bovine brains were obtained from Pel-Freeze Biologicals, and the caudate nuclei were dissected out; tissue Pel-Freeze Biologicals; host or cells: bovine caudate nuclei (washed membranes)
Protocol: The affinities of the compounds at the central 5-HT1D binding sites were determined using a modification of the binding assay described by Heuring and Peroutka (J. Neurosci. 7:894-903, 1987). Bovine brains were obtained from Pel-Freeze Biologicals, and the caudate nuclei were dissected out and frozen at -70° C. until the time that the membranes were prepared for the binding assays. At that time the tissues were homogenized in 40 volumes of ice-cold Tris-HCl buffer (50 mM, pH 7.4 at 22° C.) with a Techmar Tissumizer (setting 65 for 15 sec), and the homogenate was centrifuged at 39,800 g for 10 min. The resulting pellet was then resuspended in the same buffer, and the centrifugation and resuspension process was repeated three additional times to wash the membranes. Between the second and third washes the resuspended membranes were incubated for 10 min at 37° C. to facilitate the removal of endogenous 5-HT. The final pellet was resuspended in Tris buffer to a concentration of 25 mg of original tissue wet weight/ml for use in the binding assay. […] The assay tubes were incubated for 10 min at 37° C., and the contents were then rapidly filtered through GF/B filters (pretreated with 0.5% polyethylenimine), followed by four one-mL washes with ice-cold buffer. The radioactivity trapped by the filters was quantitated by liquid scintillation spectrometry, and specific [^3 H]5-HT binding to the 5-HT1D sites was defined as the difference between [^3 H]5-HT bound in the presence and absence of 10 μM 5-HT.
The affinities of compounds at the 5-HT1D receptor are expressed as IC50 values, i.e., the concentration required to inhibit 50% of the binding. These values were determined from 12-point competition curves using nonlinear regression (SYSTAT, SYSTAT, Inc., Evanston, Ill.).

central 5-HT1A receptors = molecular target: T2, central 5-HT1A receptors (Rattus norvegicus, UniProt P19327); test: 5-HT1A receptor binding ([3H]8-OH-DPAT displacement, rat hippocampal membranes); parameters: species or system male Sprague-Dawley rats
T2 construct: the brains were rapidly chilled and dissected to obtain the hippocampi; from tissue; host or cells: hippocampus of male Sprague-Dawley rats (washed membranes)
T2 sequence (P19327 1-422): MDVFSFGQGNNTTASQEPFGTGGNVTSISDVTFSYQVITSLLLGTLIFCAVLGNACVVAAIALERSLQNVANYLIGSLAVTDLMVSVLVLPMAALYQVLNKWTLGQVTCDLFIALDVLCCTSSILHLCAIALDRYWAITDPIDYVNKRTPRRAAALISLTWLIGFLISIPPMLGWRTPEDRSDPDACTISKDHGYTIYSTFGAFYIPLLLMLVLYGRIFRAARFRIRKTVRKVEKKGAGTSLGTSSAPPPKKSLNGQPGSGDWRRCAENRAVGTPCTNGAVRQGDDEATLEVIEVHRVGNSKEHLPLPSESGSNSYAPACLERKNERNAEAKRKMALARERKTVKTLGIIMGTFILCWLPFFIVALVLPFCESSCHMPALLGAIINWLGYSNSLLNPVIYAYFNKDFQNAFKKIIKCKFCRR
Protocol: The affinities of the compounds at the central 5-HT1A receptors were determined using a modification of the binding assay described by Taylor, et al., (J. Pharmacol. Exp. Ther. 236:118-125, 1986). Membranes for the binding assay were prepared from male Sprague-Dawley rats (150-250 g). The animals were killed by decapitation, and the brains were rapidly chilled and dissected to obtain the hippocampi. The hippocampi were either prepared that day or stored frozen (-70° C.) until the day of preparation. Membranes were prepared by homogenizing the tissue in 40 volumes of ice-cold Tris-HCl buffer (50 mM, pH 7.4 at 22° C.) using a Techmar Tissumizer (setting 65 for 15 sec), and the homogenate was centrifuged at 39800×g for 10 min. The resulting pellet was then resuspended in the same buffer, and the centrifugation and resuspension process was repeated three additional times to wash the membranes. Between the second and third washes the resuspended membranes were incubated for 10 min at 37° C. to facilitate the removal of endogenous ligands. The final pellet was resuspended in 67 mM Tris-HCl, pH 7.4, to a concentration of 2 mg of tissue original wet weight/200 μl. This homogenate was stored frozen (-70° C.) until the day of the binding assay. […] The assay tubes were incubated for 10 min at 37° C., and the contents were then rapidly filtered through GF/B filters (pretreated with 0.5% polyethylenimine), followed by four one-mL washes with ice cold buffer. The radioactivity trapped by the filters was quantitated by liquid scintillation spectrometry, and specific [^3 H]8-OH-DPAT binding to the 5-HT1A sites was defined as the difference between [^3 H]8-OH-DPAT bound in the presence and absence of 10 μM 5-HT.
The affinity of the particular compound at the 5-HT1A receptor is expressed as IC50 value, i.e., the concentration required to inhibit 50% of the binding. The IC50 values were determined from 12-point competition curves using nonlinear regression (SYSTAT, SYSTAT, INC., Evanston, Ill.).

serum corticosterone = serum corticosterone in vivo after subcutaneous injection; parameters: species or system male albino rats; conditions: 1 hour, * = P<0.05 vs control
Protocol: (§1) Certain compounds were evaluated to determine their ability to affect the 5-hydroxyindoles serotonin, 5-hydroxyindole acetic acid (5HIAA) and serum corticosterone, in vivo, using the following procedures.
(§2) Compounds in aqueous solution were injected subcutaneously into male albino rats. Rats were decapitated one hour later. Trunk blood was collected and allowed to clot; after centrifugation, serum was stored frozen prior to analysis. Whole brain was removed and frozen on dry ice, then stored frozen prior to analysis. Serum corticosterone concentration was measured spectrofluorometrically (J. H. Solem and T. Brinch-Johnsen, "An evaluation of a method for determination of free corticosteroids in minute quantities of mouse plasma," Scand. J. Clin. Lab. Invest. (Suppl. 80), 1.14 (1965).) 5-Hydroxyindoleacetic acid (5HIAA) concentration in whole brain was measured by liquid chromatography with electrochemical detection. (Ray W. Fuller and Kenneth W. Perry, "Effects of buspirone and its metabolite, 1-(2-pyrimidinyl)piperazine, on brain monoamines and their metabolites in rats", J. Pharmacol. Exp. Ther. 248, 50-56 (1989).) The results are provided in Table III.

Brain 5-hydroxyindoles = test: brain 5-hydroxyindoles in vivo after subcutaneous injection; parameters: species or system male albino rats; conditions: 1 hour, * = P<0.05 vs control
Protocol: as §1, §2

[2] = [3H]5-HT 1.7-1.9 nM, bovine caudate, 8-OH-DPTA and mesulergine 100 nM as masks, pH 7.4, 37° C., 10 min, read-out: 5HT1D IC50 (concentration required to inhibit 50% of the binding)
[3] = [3H]8-OH-DPAT 1.0 nM, rat hippocampi, pH 7.4, 37° C., 10 min, read-out: 5HT1A IC50 (concentration required to inhibit 50% of the binding)

T1 sequence (F1MGM3 1-403): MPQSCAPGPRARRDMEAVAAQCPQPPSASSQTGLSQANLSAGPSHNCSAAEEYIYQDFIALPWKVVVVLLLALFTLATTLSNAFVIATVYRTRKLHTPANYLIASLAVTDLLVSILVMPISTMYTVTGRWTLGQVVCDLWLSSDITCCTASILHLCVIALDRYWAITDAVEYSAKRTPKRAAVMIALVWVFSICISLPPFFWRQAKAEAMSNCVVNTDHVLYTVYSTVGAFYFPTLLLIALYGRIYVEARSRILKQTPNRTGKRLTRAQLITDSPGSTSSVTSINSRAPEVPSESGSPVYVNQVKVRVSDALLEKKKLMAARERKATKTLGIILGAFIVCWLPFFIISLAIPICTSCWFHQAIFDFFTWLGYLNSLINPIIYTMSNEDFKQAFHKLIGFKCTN

## CCCN(CCC)[C@@H]1Cc2c(C(=O)CC)ccc3c2[C@H](CN3)C1 [Example 10, (-)-(2aR,4S)-6-(propanoyl)-4-(di-n-propylamino)-1,2,2a,3,4,5-hexahydrobenz[cd]indole]
[1]; [2]
  IC50: 9000 nM
Central 5-HT1A receptors; [3]
  IC50: 9.47 nM

## CCCN(CCC)[C@@H]1Cc2c(C(C)=O)ccc3c2[C@H](CN3)C1 [Example 7, (-) (2aR,4S)-6-acetyl-4-(di-n-propylamino)-1,2,2a,3,4,5-hexahydrobenz[cd]indole]
Serum corticosterone; 0.003 mg/Kg s.c.
  Serum Corticosterone: 3.8 ± 0.5 μg/100 ml
Serum corticosterone; 0.03 mg/Kg s.c.
  Serum Corticosterone: 6.5 ± 2.6 μg/100 ml
Serum corticosterone; 0.3 mg/Kg s.c.
  Serum Corticosterone: 8.4 ± 4.0 μg/100 ml
[1]; [2]
  IC50: 8500 nM
Central 5-HT1A receptors; [3]
  IC50: 6.61 nM
Brain 5-hydroxyindoles; 0.003 mg/Kg s.c.
  Brain 5-HIAA: 2.06 ± 0.13 n moles/g
  Brain serotonin: 2.75 ± 0.05 n moles/g
Brain 5-hydroxyindoles; 0.03 mg/Kg s.c.
  Brain 5-HIAA: 1.87 ± 0.07 n moles/g
  Brain serotonin: 2.57 ± 0.10 n moles/g
Brain 5-hydroxyindoles; 0.3 mg/Kg s.c.
  Brain 5-HIAA: 1.77 ± 0.17 n moles/g
  Brain serotonin: 2.85 ± 0.08 n moles/g

## CCCN(CCC)[C@H]1Cc2c(C(C)=O)ccc3c2[C@H](CN3)C1 [Example 4, (2aR,4R)-6-acetyl-4-(di-n-propylamino)-1,2,2a,3,4,5-hexahydrobenz[cd]indole]
[1]; [2]
  IC50: 236 nM
Central 5-HT1A receptors; [3]
  IC50: 0.8 nM

## CCCN(CCC)[C@H]1Cc2c(C(=O)c3ccccc3)ccc3c2[C@@H](CN3)C1 [Example 12, (+)-(2aS,4R)-6-(benzoyl)-4-(di-n-propylamine)-1,2,2a,3,4,5-hexahydrobenz[cd]indole]
[1]; [2]
  IC50: 1.78 nM
Central 5-HT1A receptors; [3]
  IC50: 0.34 nM

## CCCN(CCC)[C@@H]1Cc2c(C(C)=O)ccc3c2[C@@H](CN3)C1 [Example 5, (2aS,4S)-6-acetyl-4-(di-n-propylamino)-1,2,2a,3,4,5-hexahydrobenz[cd]indole]
[1]; [2]
  IC50: 129 nM
Central 5-HT1A receptors; [3]
  IC50: 0.31 nM

## CCCN(CCC)[C@H]1Cc2c(C(=O)C(C)C)ccc3c2[C@@H](CN3)C1 [Example 8, (+)-(2aS,4R)-6-(2-methylpropanoyl)-4-(di-n-propylamino)-1,2,2a,3,4,5-hexahydrobenz[cd]indole]
Serum corticosterone; 0.003 mg/Kg s.c.
  Serum Corticosterone: 3.6 ± 0.7 μg/100 ml
Serum corticosterone; 0.03 mg/Kg s.c.
  Serum Corticosterone: 27.1 ± 6.4 μg/100 ml
Serum corticosterone; 0.3 mg/Kg s.c.
  Serum Corticosterone: 42.0 ± 0.4 μg/100 ml
[1]; [2]
  IC50: 1.24 nM
Central 5-HT1A receptors; [3]
  IC50: 0.25 nM
Brain 5-hydroxyindoles; 0.003 mg/Kg s.c.
  Brain 5-HIAA: 1.56 ± 0.10 n moles/g
  Brain serotonin: 1.88 ± 0.05 n moles/g
Brain 5-hydroxyindoles; 0.03 mg/Kg s.c.
  Brain 5-HIAA: 1.34 ± 0.06 n moles/g
  Brain serotonin: 2.26 ± 0.06 n moles/g
Brain 5-hydroxyindoles; 0.3 mg/Kg s.c.
  Brain 5-HIAA: 1.30 ± 0.07 n moles/g
  Brain serotonin: 2.26 ± 0.16 n moles/g

## CCCN(CCC)C1Cc2c(C(=O)C(C)C)ccc3c2C(CN3)C1 (single isomer, unassigned; (-)) [Example 9, (-)-6-(2-methylpropanoyl)-4-(di-n-propylamino)-1,2,2a,3,4,5-hexahydrobenz[cd]indole]
Serum corticosterone; 0.003 mg/Kg s.c.
  Serum Corticosterone: 4.1 ± 0.5 μg/100 ml
Serum corticosterone; 0.03 mg/Kg s.c.
  Serum Corticosterone: 6.0 ± 1.6 μg/100 ml
Serum corticosterone; 0.3 mg/Kg s.c.
  Serum Corticosterone: 6.7 ± 2.0 μg/100 ml
[1]; [2]
  IC50: 3130 nM
Central 5-HT1A receptors; [3]
  IC50: 54.9 nM
Brain 5-hydroxyindoles; 0.003 mg/Kg s.c.
  Brain 5-HIAA: 1.68 ± 0.10 n moles/g
  Brain serotonin: 1.83 ± 0.08 n moles/g
Brain 5-hydroxyindoles; 0.03 mg/Kg s.c.
  Brain 5-HIAA: 1.91 ± 0.06 n moles/g
  Brain serotonin: 1.90 ± 0.10 n moles/g
Brain 5-hydroxyindoles; 0.3 mg/Kg s.c.
  Brain 5-HIAA: 1.74 ± 0.04 n moles/g
  Brain serotonin: 1.69 ± 0.06 n moles/g

## CCCN(CCC)[C@H]1Cc2c(C(C)=O)ccc3c2[C@@H](CN3)C1 (relative stereo) [Example 3, 6-acetyl-4-(di-n-propylamino)-1,2,2a,3,4,5-hexahydrobenz[cd]indole]
[1]
  IC50: 7.47 nM
Central 5-HT1A receptors
  IC50: 0.63 nM

## CCCN(CCC)[C@H]1Cc2c(C(=O)Cc3ccccc3)ccc3c2[C@@H](CN3)C1 [Example 13, (+)-(2aS,4R)-6-(2-phenylethanoyl)-4-(di-n-propylamino)-1,2,2a,3,4,5-hexahydrobenz[cd]indole]
[1]; [2]
  IC50: 2.7 nM
Central 5-HT1A receptors; [3]
  IC50: 0.98 nM

## CCCN(CCC)[C@H]1Cc2c(C(C)=O)ccc3c2[C@@H](CN3)C1 [Example 6, (+)-(2aS,4R)-6-acetyl-4-(di-n-propylamino)-1,2,2a,3,4,5-hexahydrobenz[cd]indole]
Serum corticosterone; 0.003 mg/Kg s.c.
  Serum Corticosterone: 5.8 ± 1.0 μg/100 ml
Serum corticosterone; 0.03 mg/Kg s.c.
  Serum Corticosterone: 10.6 ± 2.0 μg/100 ml
Serum corticosterone; 0.3 mg/Kg s.c.
  Serum Corticosterone: 42.2 ± 1.1 μg/100 ml
[1]; [2]
  IC50: 6.25 nM
Central 5-HT1A receptors; [3]
  IC50: 0.3 nM
Brain 5-hydroxyindoles; 0.003 mg/Kg s.c.
  Brain 5-HIAA: 1.81 ± 0.14 n moles/g
  Brain serotonin: 2.46 ± 0.14 n moles/g
Brain 5-hydroxyindoles; 0.03 mg/Kg s.c.
  Brain 5-HIAA: 1.58 ± 0.08 n moles/g
  Brain serotonin: 2.99 ± 0.06 n moles/g
Brain 5-hydroxyindoles; 0.3 mg/Kg s.c.
  Brain 5-HIAA: 1.41 ± 0.03 n moles/g
  Brain serotonin: 3.08 ± 0.04 n moles/g

Reference: US5229410A, “6-substituted-hexahydrobenz[cd]indoles” (Eli Lilly and Company, priority 1991, dated 1993)
